# Test results published in patent US9957271B2, “Substituted bicyclic aza-heterocycles and analogues as sirtuin modulators” (GlaxoSmithKline, LLC, priority 2012, dated 2018).
# Biological target: T1, SIRT1 (Homo sapiens, UniProt Q96EB6)
# T1 sequence (Q96EB6 1-747): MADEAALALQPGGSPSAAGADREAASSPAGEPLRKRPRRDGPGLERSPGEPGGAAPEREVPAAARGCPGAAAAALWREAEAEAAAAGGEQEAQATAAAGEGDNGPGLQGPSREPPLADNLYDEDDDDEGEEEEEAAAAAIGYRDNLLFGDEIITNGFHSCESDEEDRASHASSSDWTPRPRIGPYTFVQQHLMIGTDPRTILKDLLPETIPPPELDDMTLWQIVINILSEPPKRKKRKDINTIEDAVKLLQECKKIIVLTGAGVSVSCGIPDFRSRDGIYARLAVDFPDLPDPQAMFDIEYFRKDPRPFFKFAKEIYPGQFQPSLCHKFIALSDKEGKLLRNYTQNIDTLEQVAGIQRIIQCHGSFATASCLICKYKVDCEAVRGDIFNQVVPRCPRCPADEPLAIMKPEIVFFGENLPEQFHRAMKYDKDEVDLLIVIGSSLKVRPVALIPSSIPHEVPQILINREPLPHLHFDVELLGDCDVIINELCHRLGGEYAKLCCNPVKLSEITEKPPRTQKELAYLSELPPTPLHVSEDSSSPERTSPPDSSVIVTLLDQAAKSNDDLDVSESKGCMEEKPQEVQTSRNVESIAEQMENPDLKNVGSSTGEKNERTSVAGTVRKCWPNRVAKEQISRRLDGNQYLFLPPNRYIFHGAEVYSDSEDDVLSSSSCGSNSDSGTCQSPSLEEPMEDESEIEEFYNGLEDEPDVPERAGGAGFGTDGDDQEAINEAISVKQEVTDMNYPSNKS
# Experiment: Trp mass spectrometry assay of SIRT1 activity
# Assay type: biochemical
# Details: Trp assay; for Trp EC1.5 (μM): concentration giving 150% activation of SIRT1; for Emax: percent maximum fold activation, read-out: Trp % Fold Act
# Source text: Mass spectrometry based assays were used to identify modulators of SIRT1 activity. The TAMRA based assay utilized a peptide having 20 amino acid residues as follows: Ac-EE-K(biotin)-[…](Ac)NleSTEG-K(5TMR)-EE-NH2 (SEQ ID NO: 1), wherein K(Ac) is an acetylated lysine residue and Nle is a norleucine. The peptide was labeled with the fluorophore 5TMR (excitation 540 nm/emission 580 nm) at the C-terminus. The sequence of the peptide substrate was based on p53 with several modifications. In addition, the methionine residue naturally present in the sequence was replaced with the norleucine because the methionine may be susceptible to oxidation during synthesis and purification. The Trp based assay utilized a peptide having an amino acid residues as follows: Ac-R-H-K-K(Ac)-W-NH2 (SEQ ID NO: 2).
# The Trp mass spectrometry assay was conducted as follows. 0.5 μM peptide substrate and 120 μM βNAD^+ were incubated with 10 nM SIRT1 for 25 minutes at 25° C. in a reaction buffer (50 mM HEPES pH 7.5, […], 1 mM DTT, 0.05% BSA). The SIRT1 protein was obtained by cloning the SirT1 gene into a T7-promoter containing vector, which was then expressed in BL21(DE3) bacterial cells and purified as described in further detail below. Test compound was added at varying concentrations to this reaction mixture and the resulting reactions were monitored. After the 25 minute incubation with SIRT1, 10 μL of 10% formic acid was added to stop the reaction. The resulting reactions were sealed and frozen for later mass spec analysis. The relative SIRT1 activity was then determined by measuring the amount of O-acetyl-ADP-ribose (OAADPR) formed (or, alternatively, the amount of deacetylated Trp peptide generated) by the NAD-dependent sirtuin deacetylation reaction in the presence of varying concentrations of the test compound versus control reactions lacking the test compound. The degree to which the test agent activated deacetylation by SIRT1 was expressed as EC1.5 (i.e., the concentration of compound required to increase SIRT1 activity by 50% over the control lacking test compound), and Percent Maximum Activation (i.e., the maximum activity relative to control (100%) obtained for the test compound).
# A control for inhibition of sirtuin activity was conducted by adding 1 μL of 500 mM nicotinamide as a negative control at the start of the reaction (e.g., permits determination of maximum sirtuin inhibition). A control for activation of sirtuin activity was conducted using 10 nM of sirtuin protein, with 1 μL of DMSO in place of compound, to determine the amount of deacetylation of the substrate at a given time point within the linear range of the assay. This time point was the same as that used for test compounds and, within the linear range, the endpoint represents a change in velocity.
# For the above assay, SIRT1 protein was expressed and purified as follows. The SirT1 gene was cloned into a T7-promoter containing vector and transformed into BL21(DE3). The protein was expressed by induction with 1 mM IPTG as an N-terminal His-tag fusion protein at 18° C. overnight and harvested at 30,000×g. Cells were lysed with lysozyme in lysis buffer (50 mM Tris-HCl, 2 mM Tris[2-carboxyethyl]phosphine (TCEP), 10 μM ZnCl2, 200 mM NaCl) and further treated with sonication for […] for complete lysis. The protein was purified over a Ni-NTA column (Amersham) and fractions containing pure protein were pooled, concentrated and run over a sizing column (Sephadex S200 26/60 global). The peak containing soluble protein was collected and run on an Ion-exchange column (MonoQ). Gradient elution (200 mM-500 mM NaCl) yielded pure protein. This protein was concentrated and dialyzed against dialysis buffer (20 mM Tris-HCl, 2 mM TCEP) overnight. The protein was aliquoted and frozen at −80° C. until further use.
Compound,Trp EC1.5 (μM),Emax [%]
CN(C)[C@H]1CCN(c2ccc3ncc(C(=O)Nc4ccccn4)n3n2)C1 [Compound 866],B (EC1.5 1-25 μM),≥ 350
Cc1nc2ccc(N3CC[C@H](N(C)C)C3)nn2c1C(=O)Nc1ccccn1 [Compound 867],B (EC1.5 1-25 μM),≥ 350
CN(C)[C@H]1CCN(c2ccc3ncc(C(=O)Nc4cccnc4)n3n2)C1 [Compound 868],B (EC1.5 1-25 μM),< 350
CN(C)[C@H]1CCN(c2ccc3ncc(C(=O)Nc4ccncc4F)n3n2)C1 [Compound 869],B (EC1.5 1-25 μM),< 350
Cc1nc2ccc(N3CC[C@H](N(C)C)C3)nn2c1C(=O)Nc1ccncc1F [Compound 870],C (EC1.5>25 μM),< 350
Cc1nc2ccc(N3CC[C@H](N(C)C)C3)nn2c1C(=O)Nc1cnccn1 [Compound 871],B (EC1.5 1-25 μM),< 350
Cc1nc2ccc(N3CC[C@H](N(C)C)C3)nn2c1C(=O)Nc1ccc(F)cn1 [Compound 872],C (EC1.5>25 μM),< 350
CN(C)[C@H]1CCN(c2ccc3ncc(C(=O)Nc4cnccn4)n3n2)C1 [Compound 873],B (EC1.5 1-25 μM),≥ 350
CN(C)[C@H]1CCN(c2ccc3ncc(C(=O)Nc4ccc(F)cn4)n3n2)C1 [Compound 874],A (EC1.5<1 μM),< 350
Cc1cc(NC(=O)c2cnc3ccc(-c4cccc(OC[C@H](O)CO)c4)nn23)ccn1 [Compound 875],C (EC1.5>25 μM),< 350
CN(C)c1cccc(NC(=O)c2cnc3ccc(-c4cccc(OC[C@H](O)CO)c4)nn23)n1 [Compound 876],A (EC1.5<1 μM),≥ 350
Cc1nc2ccc(N3CC[C@H](N(C)C)C3)nn2c1C(=O)Nc1cccnc1 [Compound 877],B (EC1.5 1-25 μM),< 350
CN(C)c1ccnc(NC(=O)c2cnc3ccc(-c4cccc(OC[C@H](O)CO)c4)nn23)c1 [Compound 878],B (EC1.5 1-25 μM),< 350
CN(C)[C@H]1CCN(c2ccc3ncc(C(=O)Nc4cccnn4)n3n2)C1 [Compound 879],B (EC1.5 1-25 μM),< 350
Cc1nc2ccc(N3CC[C@H](N(C)C)C3)nn2c1C(=O)Nc1cccnn1 [Compound 880],B (EC1.5 1-25 μM),< 350
Cc1nc2ccc(N3CC[C@H](N(C)C)C3)nn2c1C(=O)Nc1ccncn1 [Compound 881],C (EC1.5>25 μM),< 350
CN(C)[C@H]1CCN(c2ccc3ncc(C(=O)Nc4ccncn4)n3n2)C1 [Compound 882],B (EC1.5 1-25 μM),< 350
O=C(Nc1ccncc1F)c1cnc2ccc(-c3cccc(OC[C@H](O)CO)c3)nn12 [Compound 883],A (EC1.5<1 μM),< 350
O=C(Nc1ccc(F)cn1)c1cnc2ccc(-c3cccc(OC[C@H](O)CO)c3)nn12 [Compound 884],B (EC1.5 1-25 μM),< 350
Cc1nc2ccc(N3CC[C@H](N(C)C)C3)nn2c1C(=O)Nc1ncccn1 [Compound 885],B (EC1.5 1-25 μM),< 350
CN(C)[C@H]1CCN(c2ccc3ncc(C(=O)Nc4ncccn4)n3n2)C1 [Compound 886],B (EC1.5 1-25 μM),< 350

Compound,Trp EC1.5 (μM),Emax [%]
O=C(Nc1cccnn1)c1cnc2ccc(-c3cccc(OC[C@H](O)CO)c3)nn12 [Compound 887],A (EC1.5<1 μM),< 350
O=C(Nc1cncnc1)c1cnc2ccc(N3CC[C@H](F)C3)nn12 [Compound 888],C (EC1.5>25 μM),< 350
Cc1cncc(NC(=O)c2cnc3ccc(N4CC[C@H](F)C4)nn23)c1 [Compound 889],B (EC1.5 1-25 μM),< 350
O=C(Nc1cncc(F)c1)c1cnc2ccc(N3CC[C@H](F)C3)nn12 [Compound 890],B (EC1.5 1-25 μM),< 350
Cn1ccc(NC(=O)c2cnc3ccc(N4CC[C@H](F)C4)nn23)n1 [Compound 891],B (EC1.5 1-25 μM),≥ 350
Cc1nc(NC(=O)c2cnc3ccc(N4CC[C@H](F)C4)nn23)sc1C [Compound 892],A (EC1.5<1 μM),< 350
Cc1cc(NC(=O)c2cnc3ccc(N4CC[C@H](F)C4)nn23)nc(C)n1 [Compound 893],C (EC1.5>25 μM),< 350
O=C(Nc1ccncn1)c1cnc2ccc(N3CCCC3)nn12 [Compound 894],B (EC1.5 1-25 μM),< 350
O=C(Nc1cccnn1)c1cnc2ccc(N3CCCC3)nn12 [Compound 895],C (EC1.5>25 μM),< 350
O=C(Nc1cccnc1)c1cnc2ccc(N3CCCC3)nn12 [Compound 896],B (EC1.5 1-25 μM),< 350
O=C(Nc1ccc(F)cn1)c1cnc2ccc(N3CCCC3)nn12 [Compound 897],C (EC1.5>25 μM),< 350
O=C(Nc1ccncc1F)c1cnc2ccc(N3CCCC3)nn12 [Compound 898],C (EC1.5>25 μM),< 350
O=C(Nc1ccc(F)cn1)c1cnc2ccc(N3CCCC(C(F)(F)F)C3)nn12 (stereo not shown) [Compound 900],A (EC1.5<1 μM),< 350
Cc1cncc(NC(=O)c2cnc3ccc(N4CCCC(C(F)(F)F)C4)nn23)c1 (stereo not shown) [Compound 901],A (EC1.5<1 μM),≥ 350
O=C(Nc1cccnn1)c1cnc2ccc(N3CCCC(C(F)(F)F)C3)nn12 (stereo not shown) [Compound 902],A (EC1.5<1 μM),≥ 350
O=C(Nc1ccncc1F)c1cnc2ccc(N3CCC(F)(F)C3)nn12 [Compound 903],C (EC1.5>25 μM),< 350
O=C(Nc1cccnn1)c1cnc2ccc(N3CCC(F)(F)C3)nn12 [Compound 904],B (EC1.5 1-25 μM),≥ 350
O=C(Nc1cnccn1)c1cnc2ccc(N3CCC(F)(F)C3)nn12 [Compound 905],B (EC1.5 1-25 μM),< 350
O=C(Nc1ccncn1)c1cnc2ccc(N3CCC(F)(F)C3)nn12 [Compound 906],B (EC1.5 1-25 μM),< 350
O=C(Nc1ccc(F)cn1)c1cnc2ccc(N3CCC(F)(F)C3)nn12 [Compound 907],B (EC1.5 1-25 μM),< 350
